Assay results from patent US8361779B2, “Buffer compounds” (Sachem, Inc., priority 2010, dated 2013).
“Also recorded” adds a separate entry of the source. Structures can show the parent of a compound that is named as a salt. Where two headings read alike, the source gives them in different places. Blank lines part the entries; values can stand above or below the molecule they belong to.

Key:
[1] = Change in pKa of amine caused by proximal quaternary ammonium group; type: physicochemical
Description: The presence of a quaternary ammonium (quat) group in a molecule that also contains an amine group will reduce the pKa of the amine as measured in aqueous media and polar nonaqueous media. […] All three effects as described will generally lead to some reduction of observed pKa in the molecule of interest. […] The amount of reduction in pKa depends on (1) the number of quat groups, (2) the distance of the quat group(s) from the amine and (3) the rigidity of the molecule that holds the quat group and amine in more fixed position with regard to each other.

[2] = Precision measurements of pKa-values by pH titration; type: physicochemical; details: titrated with 100 mM KOH, six titrations, 25° C., ionic-strength 0.10 unless otherwise specified (b6); for Meas. pKa: 10 mM buffer, 80 mM KCl
Description: High purity analytical quality reagents are used in these studies: potassium chloride, potassium hydroxide, primary standard potassium acid phthalate (KAP, Baker), 18 meg-ohm deionized doubly-distilled water (CO2-free). […] They are dried in a vacuum oven at 50° C. for 18-24 hours and stored in a glass desiccator over P2O5. The only remaining impurities are inert water/solvent and traces of residual HCl or HBr. Most buffers are stable in atmospheric air; a few are somewhat hygroscopic. During the weighing of the buffer compounds, care is taken to prevent or minimize absorption of atmospheric moisture. Solutions containing 10 mM buffer and 80 mM KCl are carefully prepared using degassed, deionized water and standardized volumetric flasks. Six independent pH titrations are carried out for each buffer compound using 100 mM carbonate-free KOH that is carefully standardized against KAP.
The titrator is controlled and data collected by LabX Titration software, version 2.5. The titration cell is thermostatically controlled at 10.00±0.05° C., 25.00±0.05° C. or 40.00±±0.05° C. Temperatures are measured using a NIST-traceable mercury thermometer. Titrations are adjusted so that the endpoint is close to 5 mL delivery point of the burette. Incremental titrations are carried out with increment volume of 100 μl and with continuous stirring; the system is allowed to settle after each incremental addition (10-30 sec) before a reading is recorded. Accurate, NIST-traceable buffers (±0.001 pH unit) with accurately known values at 2, 4, 7, 10, 12 in the temperature range 10-40° C. are used (Oakton Instruments, Vernon Hills, Ill.). The electrode is calibrated at pH=2, 4, 10 and 12. The pH=7 buffer is independently measured. If the pH=7 measurement is accurate to ±0.002 pH unit, a titration is carried out; if not, the calibration is repeated. A pH calibration is carried out before each titration experiment. […]

[3] = pKa values quoted for buffers (buffer combinations table); type: physicochemical; details: for pKa of buffer in cationic/anionic buffer combinations / pKa: 25° C., ionic-strength 0.10 unless otherwise specified (b6); for pKa: aqueous solution, read-out: pKa of buffer in cationic/anionic buffer combinations
Description: pH is a measurement of solvated hydrogen-ion activity, which is directly related to hydrogen ion concentration: −log [H^+]. […] Activity is a defined thermodynamic term and is related to concentration. At low concentration and low ionic-strength, activity approximately equals concentration. […] Such pKa values are more applicable to practical conditions than are thermodynamic pKa values where μ≈0. […] Initially, approximately equal concentrations are chosen.

[4] = system: Escherichia coli, Pseudomonas fluorescens, Pichia pastoris, Saccharyomyces cerevisiae; test: Microbial growth-inhibition assays, all four organisms; type: cell-based; details: for comparative growth behaviour between buffers: all four organisms, pH 7.0; for order of growth inhibition at higher concentrations: standard buffers
Description: (§1) Microbial growth inhibition assays are carried out 96-well plates with well volume of 400 μL. In the present inventors' hands, data obtained in this manner are almost equivalent to that obtained in traditional shake flasks while data collection is more accurate and convenient. Two calibrated plate readers are used so that two plates, corresponding to a single organism, could be read at the same time. Each plate contains 80 cells for one organism and four buffers each at five concentrations (25, 50, 100, 225, 500 mM) with each buffer-concentration combination (20) being replicated four-fold. Each of these cells contained 50 μL of a fresh, calibrated cell culture plus 250 μL fresh sterile cell culture. In addition, each plate contained eight identical cells with 250 μL sterile, buffer-free growth medium plus 50 μL fresh cell culture and eight cells with 300 μL sterile growth medium and no organism. Microbial growth is measured by light-scattering/absorbance measurements at 600 nm every 15-60 minutes for the prescribed period. Every 15 minutes, each plate undergoes agitation/vibration which resuspends the organisms and promotes aeration; this process is repeated just prior to each absorbance reading. For each medium, six bottles of sterile media are prepared, one for each buffer concentration (0, 30, 60, 120, 270, 600 mM) so that when each is diluted in the plate, the desired concentrations will be obtained. The media components (see below), added buffer and water are mixed, and the pH is adjusted to the proper value. Each bottle of medium is heat sterilized (121° C., 15 psig, 20 minutes), cooled and, if necessary, the pH is readjusted to the proper value in a sterile fashion with 37% HCl or 50% NaOH.
Based upon prior experience with these organisms, a series of microbial growth measurements are carried out to determine optimal growth conditions. Four different media compositions unique to each organism each at four pH values (6.0, 6.5, 7.0, 7.5) are measured at three temperatures (23° C., 30° C., 37° C.). Fortunately, combinations of near optimal growth conditions have been found so that the same pH of 7.0±0.1 could be used for all four organisms that are listed below:
Compositions of growth media are listed below for one liter of medium. pH is adjusted to 7.0±0.1 both before and after heat sterilization. Similar growth results are obtained when the added cationic buffer is added before heat-sterilization and after heat-sterilization via sterile filtration. Several useful growth media containing methanol are known for Pichia, but ME broth is equally good under the current conditions, and then evaporation of methanol is not a problem. Amounts below are given as g/L in sterilized growth medium.
(§2) The bacterial and yeast strains are grown up and counted several times in each respective growth medium obtain fresh, stable, reproducible cultures of known density as a function of time. Microbial counting is carried out in the usual fashion by using serial dilutions followed by plate counting. Each culture is diluted and plated three times, and the values are averaged. When a culture reaches the proper microbial density (cfu/mL), two 96-well plates are quickly loaded as described above, and plate reading is started using two matched plate readers.

[5] = system: Pseudomonas fluorescens ATCC 19020; test: Microbial growth-inhibition assay, P. fluorescens; type: cell-based; details: 30° C., PM broth
Description: as §1, with “For each medium, six bottles of sterile media are prepared, one for each buffer concentration (0, 30, 60, 120, 270, 600 mM) so that when each is diluted in the plate, the desired concentrations will be obtained. The media components (see below), added buffer and water are mixed, and the pH is adjusted to the proper value.” left out
Based upon prior experience with these organisms, a series of microbial growth measurements are carried out to determine optimal growth conditions. Four different media compositions unique to each organism each at four pH values (6.0, 6.5, 7.0, 7.5) are measured at three temperatures (23° C., 30° C., 37° C.). […]
as §2, with “Microbial counting is carried out in the usual fashion by using serial dilutions followed by plate counting. Each culture is diluted and plated three times, and the values are averaged.” left out

[6] = Est. pKa of Table 1 compounds (approximate measurements of pKa-values); type: physicochemical; details: for pKa: aqueous 80 mM KCl solution (pH titration with 100 mM KOH)
Description: This method is used when nonreactive impurities are >5% (HPLC), when reactive impurities are >1% (HPLC), when insufficient buffer is available or when noticeably poor curve fitting is seen in the above method. The experimental method is nearly the same as the above method, but the experimental volume-pH data are processed differently. Usually, only one or two titrations are carried out. The pKa is estimated to be the same as the pH of the titration curve at the half-equivalence point. The estimated pKa values can be as good at ±0.1 or as poor as ±0.5 depending on the nature and amounts of impurities.

[7] = relative to trimethylamine, water at 25° C., μ=0.1, approximate numbers
[8] = single value, read-out: Est. pKa
[9] = HEPES, buffer combinations table

Change in pKa of Me2N— [1, 7]: ~−0.9 log K units
Molecule: CN(C)CCCC[N+](C)(C)C [n = 4 (—CH2(CH2)2CH2—)]

Change in pKa of Me2N— [1, 7]: ~−3.6 log K units
Molecule: CN1CCC[N+](C)(C)CC1 [N,N′,N′-Me3-Homopiperazinium^+]

Change in pKa of Me2N— [1, 7]: ~−3.7 log K units
Molecule: CN(C)CC[N+](C)(C)C [n = 2 (—CH2CH2—)]

Molecule: C[N+](C)(C)CC(O)CC(=O)[O-] (centres unmarked) [Carnitine HCl]
pKa ([2]; aqueous solution of 10 mM buffer and 80 mM KCl, read-out: Meas. pKa): 3.83

pKa quoted in comparison of buffers with similar pKa values [3]: 8.4
Meas. pKa [2]: 8.410
Molecule: O=S(=O)(O)CCCNC(CO)(CO)CO [TAPS]
comparative growth behaviour between buffers [4]: consistently the best of all eight buffers tested; also recorded: is better than DEGA
order of growth inhibition at higher concentrations [4]: TRIS>MES>TAPS

Molecule: CCN(CC)CC(O)C[N+](C)(C)C.[Cl-] (centres unmarked) [Compound 10, N-(2-hydroxy-3-trimethylammonium-propyl)diethylamine chloride]
comparative growth of Pseudomonas [5]: DEAGA and MEAGA are clearly better than DIMEGA and DEGA
pKa quoted in comparison of buffers with similar pKa values [3]: 8.5
comparative growth behaviour between buffers [4]: TAPS (8.4) is better than DEGA

comparative growth behaviour between buffers [4]: about the same behavior
Molecule: O=S(=O)(O)CCN1CCOCC1 [MES]

pKa [6, 8]: ~5.2
Molecule: CN(CCO)CC[N+](C)(C)CCO [Compound 20a]

Change in pKa of Me2N— [1, 7]: ~−0.5 log K units
Molecule: CN(C)CCCCC[N+](C)(C)C [n = 5 (—CH2(CH2)3CH2—)]

pKa [6, 8]: ~8.7
Molecule: CCN(CC)CCC[N+](C)(CC)CC [Compound 30a]

pKa [6, 8]: ~6.7
Molecule: CCN(CC)CC[N+](C)(CC)CC [Compound 28a]

hydrolytic stability [1]: Limited hydrolytic stability
Change in pKa of Me2N— [1, 7]: ~−10.5 log K units
Molecule: CN(C)C[N+](C)(C)C [n = 1* (—CH2—)]

Molecule: C[N+]12CCN(CC1)CC2 [N-Me-Diazabicyclo[2.2.2]octane^+]
Change in pKa of Me2N— [1]: ~−6.7 log K units

Molecule: C[N+](C)(C)CC(O)CNCCO.Cl.[Cl-] (centres unmarked) [Compound 78a, N-(3-trimethylammonium-2-hydroxypropyl)ethanolamine chloride hydrochloride]
Est. pKa ([6]; single value): ~7.8

Molecule: Br.CN(C)C(=NCCC[N+](C)(C)C)N(C)C.[Br-] [Compound 76, 2-(3-trimethylammoniumpropyl)-1,1,3,3-tetramethylguanidine bromide hydrobromide]
Est. pKa ([6]; single value): ~12.9

Change in pKa of Me2N— [1, 7]: ~−1.1 log K units
Molecule: CN(C)CC(O)C(O)C[N+](C)(C)C (centres unmarked) [n = 4 (—CH2CH(OH)CH(OH)CH2—)]

pKa [6, 8]: ~5.8
Molecule: C[N+](C)(C)CC(O)CNC(CO)(CO)CO (centres unmarked) [Compound 19a]

pKa of buffer in cationic/anionic buffer combinations [3]: 9.4
Molecule: O=S(=O)(O)CCNC1CCCCC1 [CHES (H+)]

Change in pKa of Me2N— [1, 7]: ~−5.5 log K units
Molecule: CN1CC[N+](C)(C)CC1 [N,N′,N′-Me3-Piperazinium^+]

pKa [3]: 9
Molecule: OB(O)O [Boric Acid]

Molecule: CN(C)CCC[N+](C)(C)C.Cl.[Cl-] [Compound 29a, (3-trimethylammoniumpropyl) dimethylamine chloride hydrochloride]
Est. pKa ([6]; single value): ~8.1

Molecule: CN(C)CC(O)C[N+](C)(C)C.[Cl-] (centres unmarked) [Compound 8]
comparative growth of Pseudomonas [5]: DEAGA and MEAGA are clearly better than DIMEGA and DEGA
pKa quoted in comparison of buffers with similar pKa values [3]: 7.9
comparative growth behaviour between buffers [4]: is better than TRIS

Molecule: CN(C)CC(O)C[N+](C)(C)C (centres unmarked) [n = 3 (—CH2CH(OH)CH2—)]
Change in pKa of Me2N— [1, 7]: ~−1.9 log K units

Est. pKa, second of two values ([6]; wide-range buffer, higher pKa): ~8.2
Est. pKa, first of two values ([6]; wide-range buffer, lower pKa): ~6.8
Molecule: CN(C)CCC[N+](C)(C)CCCP(=O)([O-])O [Compound 60, N,N,N′,N′-tetramethyl-N-(3-phosphonopropyl)-1,3-propanediammonium di-Inner salt]

Molecule: CCN(C(C)C)C1CC[N+](CC)(CC)CC1 [Compound 74a]
pKa [6, 8]: ~7.4

Est. pKa, second of two values ([6]; wide-range buffer, higher pKa): ~8.0
Est. pKa, first of two values ([6]; wide-range buffer, lower pKa): ~6.5
Molecule: 1,1,5,9-tetramethyl-2-hydroxy-5,9-bis(2-sulfoethyl)-1,5,9-triazanonane di-inner salt [Compound 82]

Change in pKa of Me2N— [1, 7]: ~−0.3 log K units
Molecule: CN(C)CCCCCC[N+](C)(C)C [n = 6 (—CH2(CH2)4CH2—)]

pKa [3]: 3.3
Molecule: COCC(=O)O [Methoxyacetic Acid]

pKa ([6]; wide-range buffer, higher pKa, read-out: Est. pKa, second of two values): ~8
pKa ([6]; wide-range buffer, lower pKa, read-out: Est. pKa, first of two values): ~6.5
Molecule: CN(C)CC(O)C[N+](C)(CCCN(C)CCS(=O)(=O)O)CCS(=O)(=O)[O-] (centres unmarked) [Compound 59]

Change in pKa of Me2N— [1, 7]: ~−1.3 log K units
Molecule: CN(C)CC=CC[N+](C)(C)C [n = 4 (trans —CH2CH═CHCH2—)]

Est. pKa ([6]; single value): ~11.1
Molecule: CN1CCN(C)C1=NCC[N+](C)(C)C.Cl.[Cl-] [Compound 77, N(2-(1′,3′-dimethylimidazoline-2′-iminato)ethyl)trimethyl-ammonium chloride hydrochloride]

Meas. pKa [2]: 7.099
Molecule: O=S(=O)(O)CCCN1CCOCC1 [MOPS]

pKa [6, 8]: ~10.1
Molecule: CCN(CC)CCCCCC[N+](C)(CC)CC [Compound 34a]

Molecule: NC(CO)(CO)CO [TRIS]
comparative growth of Pseudomonas [5]: all 5 cationic buffers being better than TRIS
comparative growth behaviour between buffers [4]: DIMEGA (7.9) is better than TRIS
order of growth inhibition at higher concentrations [4]: TRIS>MES>TAPS

Est. pKa ([6]; single value): ~6.1
Molecule: CN(CCC[N+](C)(CCS(=O)(=O)[O-])CC(O)C[N+](C)(C)Cc1ccccc1)CCS(=O)(=O)[O-] (centres unmarked) [Compound 81, 1-benzyl-1,1,5,9-tetramethyl-3-hydroxy-5,9-bis(2-sulfoethyl)-1,5,9-triazanonane, di-inner salt]

Est. pKa ([6]; single value): ~5.5
Molecule: CN(CCCS(=O)(=O)O)CC[N+](C)(C)CCCS(=O)(=O)[O-] [Compound 66, N,N′,N′-trimethyl-N,N′-bis(3-sulfopropyl)ethylenediammonium di-inner salt]

Est. pKa ([6]; single value): ~8.1
Molecule: CN(C)CCC[N+](C)(C)CCCS(=O)(=O)[O-] [Compound 57, N,N,N′,N′-tetramethyl-N-(3-sulfopropyl)-1,3-propanediamine Inner salt]

Molecule: O=S(=O)(O)CCN1CCN(CCO)CC1 [HEPES]
pKa1 [3, 9]: 3.0
pKa2 [3, 9]: 7.5

Molecule: C[N+](C)(C)CC(O)CN(CCO)CCCS(=O)(=O)[O-] (centres unmarked) [Compound 51, N-(2-hydroxy-3-trimethylammoniumpropyl)-N-(2-hydroxyethyl)homotaurine inner salt]
Est. pKa ([6]; single value): ~6.4

Est. pKa ([6]; single value): ~8.1
Molecule: Br.CCOP(=O)(CCC[N+](C)(C)CCCN(C)C)OCC.[Br-] [Compound 79a, N,N,N′,N′-tetramethyl-N-(3-diethylphosphonopropyl)-1,3-propanediamine diethyl ester bromide•hydrobromide]

pKa of buffer in cationic/anionic buffer combinations [3]: 7.5
Molecule: O=S(=O)(O)CCNC(CO)(CO)CO [TES (H+)]

Molecule: CN(C)CCC[N+](C)(C)C [n = 3 (—CH2CH2CH2—)]
Change in pKa of Me2N— [1, 7]: ~−1.7 log K units
